# Measurements: publication PMC5007978, “A chemical with proven clinical safety rescues Down-syndrome-related phenotypes in through DYRK1A inhibition” (Disease Models & Mechanisms, 2016)
# What was measured:
# [1] = test system: calcineurin-NFAT signaling; experiment: Flag-NFATc1 localization by immunofluorescence in 293T cells; type: cell-based; settings: 10 μM, 293T cells with overexpressed DYRK1A, ionomycin 5 μM
# Excerpt: Flag-NFATc1 remained predominantly in the cytosol when expressed in 293T cells (Mock, Fig. 5A). Upon the addition of the calcium ionophore ionomycin (IM), Flag-NFATc1 was translocated into the nucleus (Fig. 5A, IM) as a result of NFATc1 dephosphorylation by activated calcineurin. Overexpression of DYRK1A relocalized Flag-NFATc1 into the cytoplasm, even in the presence of ionomycin owing to the opposing action of DYRK1A on NFATc1 phosphorylation, which is consistent with its negative regulatory role in the calcineurin-NFAT pathway (Fig. 5A, DYRK1A+IM).
# Fig. 5. […] Firefly luciferase activities were measured using One-Glo reagents. Luciferase activity in the sample with reporter plasmid alone was set to 1, and the relative luciferase activities were calculated. Means±s.d. were determined from two independent experiments.
# 293T cells were seeded into 8-well chambered coverslips (Ibidi) and transfected with a plasmid expressing Flag-NFATc1. […] Cells were fixed with 4% paraformaldehyde in PBS for 10 min at room temperature, followed by permeabilization with 0.1% Triton X-100, and then subjected to immunofluorescence staining with anti-Flag (1:500) antibody for 2 h. Cells were then washed with cold PBS three times for 3 min each, incubated with Alexa-Fluor-488-conjugated anti-rabbit IgG (1:800) (Invitrogen) at room temperature for 1 h and then examined under a fluorescence microscope.
# [2] = test system: mnb-overexpressing Drosophila; experiment: Eye phenotype in flies overexpressing human Tau with or without mnb (GMR-Gal4); type: in vivo, Drosophila melanogaster; settings: feeding with 100 nM, GMR>Tau and GMR>mnb+Tau
# Excerpt: (§1) The expression of human Tau in Drosophila retinal tissue (GMR>Tau) produced a small rough eye phenotype (GMR>Tau in Fig. 6A and B), as described previously ([Jackson et al., 2002]). […] Pan-neuronal mnb overexpression (elav::synGFP>mnb) caused severe neurogenic defects in both the central and peripheral nervous system during embryogenesis [elav::synGFP>mnb (DMSO) in Fig. 6C]. […] Moreover, the viability of adult flies with the neuronal overexpression of mnb was examined. Pan-neuronal overexpression of mnb caused high rates of mortality in adult flies (∼70%, Fig. 6D).
# Fig. 6. CX-4945 rescues neurological and phenotypic defects in an mnb-overexpressing Drosophila model. […] (B) The retinal surface areas were measured on multiple samples (n>10) from each genotype, and average eye sizes were presented as normalized percentages of the DMSO-treated GMR-Gal4 control. […]
# Drosophila melanogaster were cultured at 25°C on standard cornmeal medium. […] For defining optimal concentration of chemical inhibitors, 50 embryos of each genotype were raised on drug-containing food (0, 1 nM, 10 nM, 100 nM, 1 µM, 10 µM and 25 µM in 0.05% DMSO) and allowed to develop to adulthood (viability assay and wing vein quantification assay). […] Fly eye sizes were measured on multiple samples (n>10) from each genotype using the National Institutes of Health ImageJ software. […]
# [3] = test system: mnb-overexpressing Drosophila; experiment: Embryonic neurological phenotype with pan-neuronal mnb overexpression (elav::synGFP); type: in vivo
# Excerpt: as §1
# (§2) Fig. 6. CX-4945 rescues neurological and phenotypic defects in an mnb-overexpressing Drosophila model. (A) The eyes of adult flies overexpressing mnb and/or human Tau under the control of the eye-specific GMR-Gal4 driver, and of control flies bearing only GMR-Gal4. Overexpression of mnb aggravated the eye abnormality induced by Tau overexpression. […] White dashed lines outline the eye contour. (B) The retinal surface areas were measured on multiple samples (n>10) from each genotype, and average eye sizes were presented as normalized percentages of the DMSO-treated GMR-Gal4 control. (C) The brain cortex, primary neuronal cell clusters and axon bundle, as visualized with GFP (green) using UAS-Synaptobrevin-GFP driven by elav-Gal4 at the late embryonic stage 18. […]
# [4] = target: T1, DYRK3 (Homo sapiens, UniProt O43781); experiment: In vitro kinase assay, recombinant human DYRK3 (Life Technologies); type: biochemical
# T1 construct: purchased Life Technologies (Kinase Profiler service)
# T1 sequence (O43781 1-588): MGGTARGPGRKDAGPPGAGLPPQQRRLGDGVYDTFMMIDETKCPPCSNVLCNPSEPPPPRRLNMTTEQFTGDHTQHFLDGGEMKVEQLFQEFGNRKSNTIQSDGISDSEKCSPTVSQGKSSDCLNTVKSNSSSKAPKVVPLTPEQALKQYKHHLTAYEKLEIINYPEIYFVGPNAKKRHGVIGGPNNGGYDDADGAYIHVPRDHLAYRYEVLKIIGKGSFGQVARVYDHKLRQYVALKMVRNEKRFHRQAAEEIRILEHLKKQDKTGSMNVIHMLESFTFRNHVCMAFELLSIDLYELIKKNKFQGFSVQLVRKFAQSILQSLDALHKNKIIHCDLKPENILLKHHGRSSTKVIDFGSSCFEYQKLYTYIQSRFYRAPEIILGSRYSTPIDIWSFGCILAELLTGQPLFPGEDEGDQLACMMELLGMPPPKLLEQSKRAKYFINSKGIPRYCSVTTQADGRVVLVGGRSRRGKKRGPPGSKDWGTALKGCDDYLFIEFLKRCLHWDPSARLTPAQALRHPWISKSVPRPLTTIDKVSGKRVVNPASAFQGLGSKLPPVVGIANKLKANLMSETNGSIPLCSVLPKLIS
# [5] = test system: mnb-overexpressing Drosophila; experiment: Adult lethality with pan-neuronal mnb overexpression; type: in vivo, Drosophila melanogaster; settings: parent flies fed 100 nM, n=100 per group
# Excerpt: as §1, §2
compound,measurement,setting,value
O=C(O)c1ccc2c(c1)nc(Nc1cccc(Cl)c1)c1ccncc12 [CX-4945],nuclear translocation of Flag-NFATc1,[1],effectively induced the nuclear translocation
same,eye defects induced by overexpression of Tau alone or with mnb,[2],significantly mitigated
same,effect on control flies lacking mnb overexpression,"[3]; 100 nM, elav::synGFP>control",little noticeable effect
same,neurogenic defects of mnb-overexpressing embryos,"[3]; parent flies fed 100 nM, elav::synGFP>mnb",restored these neurogenic defects
same,IC50,[4],18 nM
same,reduction of mortality of the progeny,[5],more than 70%
